ChEMBL document CHEMBL5291721, “A preclinical secondary pharmacology resource illuminates target-adverse drug reaction associations of marketed drugs” (Nat Commun, 2023)

Assays:
[1] = target: T1, Adenosine receptor A1 (Homo sapiens, UniProt P30542)
T1 sequence (P30542 whole entry): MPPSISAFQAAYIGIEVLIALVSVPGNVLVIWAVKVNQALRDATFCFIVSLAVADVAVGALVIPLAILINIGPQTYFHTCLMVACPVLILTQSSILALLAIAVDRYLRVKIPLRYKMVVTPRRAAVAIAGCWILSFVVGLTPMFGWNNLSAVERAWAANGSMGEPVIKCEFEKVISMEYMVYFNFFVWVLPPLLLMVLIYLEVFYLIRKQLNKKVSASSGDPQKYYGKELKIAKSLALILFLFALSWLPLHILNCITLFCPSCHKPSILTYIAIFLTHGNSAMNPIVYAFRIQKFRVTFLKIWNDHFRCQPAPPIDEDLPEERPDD

[2] = target: T2, Muscarinic acetylcholine receptor M1 (Homo sapiens, UniProt P11229); format: functional
T2 sequence (P11229 whole entry): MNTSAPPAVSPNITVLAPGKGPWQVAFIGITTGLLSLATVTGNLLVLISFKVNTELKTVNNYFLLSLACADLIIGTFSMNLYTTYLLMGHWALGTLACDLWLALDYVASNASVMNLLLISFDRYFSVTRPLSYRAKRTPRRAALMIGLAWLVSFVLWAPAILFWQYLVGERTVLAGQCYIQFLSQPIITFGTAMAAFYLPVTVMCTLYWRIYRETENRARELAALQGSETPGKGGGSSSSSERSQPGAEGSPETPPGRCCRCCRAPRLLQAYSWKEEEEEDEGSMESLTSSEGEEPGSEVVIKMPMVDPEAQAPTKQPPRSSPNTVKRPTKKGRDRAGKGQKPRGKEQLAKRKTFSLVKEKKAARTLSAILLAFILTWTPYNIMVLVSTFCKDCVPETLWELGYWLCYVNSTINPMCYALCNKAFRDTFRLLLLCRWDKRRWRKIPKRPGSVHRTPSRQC

[3] = target: T3, Muscarinic acetylcholine receptor M2 (Homo sapiens, UniProt P08172)
T3 sequence (P08172 whole entry): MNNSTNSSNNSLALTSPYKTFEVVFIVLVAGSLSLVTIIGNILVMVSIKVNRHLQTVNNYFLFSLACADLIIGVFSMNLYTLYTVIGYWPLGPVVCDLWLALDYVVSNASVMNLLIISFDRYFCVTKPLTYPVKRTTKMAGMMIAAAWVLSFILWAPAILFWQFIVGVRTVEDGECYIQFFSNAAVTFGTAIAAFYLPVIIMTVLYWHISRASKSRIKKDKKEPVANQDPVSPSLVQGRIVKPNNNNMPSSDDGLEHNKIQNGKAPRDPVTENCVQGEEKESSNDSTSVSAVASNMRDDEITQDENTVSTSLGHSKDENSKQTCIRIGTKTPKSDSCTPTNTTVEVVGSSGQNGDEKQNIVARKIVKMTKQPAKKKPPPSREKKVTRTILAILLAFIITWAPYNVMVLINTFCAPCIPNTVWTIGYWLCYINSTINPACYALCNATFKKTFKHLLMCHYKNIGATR

[4] = target: T4, Endothelin-1 receptor (Homo sapiens, UniProt P25101)
T4 sequence (P25101 whole entry): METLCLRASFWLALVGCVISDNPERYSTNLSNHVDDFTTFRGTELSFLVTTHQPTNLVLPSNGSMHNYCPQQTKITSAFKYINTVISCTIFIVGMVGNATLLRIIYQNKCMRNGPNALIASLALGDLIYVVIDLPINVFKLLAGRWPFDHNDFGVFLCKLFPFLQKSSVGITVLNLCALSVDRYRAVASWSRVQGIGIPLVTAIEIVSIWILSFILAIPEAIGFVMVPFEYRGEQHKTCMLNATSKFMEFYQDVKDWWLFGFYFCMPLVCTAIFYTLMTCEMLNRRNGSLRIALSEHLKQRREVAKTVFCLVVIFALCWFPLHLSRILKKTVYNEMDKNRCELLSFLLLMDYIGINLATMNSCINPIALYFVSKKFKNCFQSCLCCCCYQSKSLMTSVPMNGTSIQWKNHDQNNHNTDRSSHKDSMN

[5] = target: T5, Progesterone receptor (Homo sapiens, UniProt P06401)
T5 sequence (P06401 whole entry): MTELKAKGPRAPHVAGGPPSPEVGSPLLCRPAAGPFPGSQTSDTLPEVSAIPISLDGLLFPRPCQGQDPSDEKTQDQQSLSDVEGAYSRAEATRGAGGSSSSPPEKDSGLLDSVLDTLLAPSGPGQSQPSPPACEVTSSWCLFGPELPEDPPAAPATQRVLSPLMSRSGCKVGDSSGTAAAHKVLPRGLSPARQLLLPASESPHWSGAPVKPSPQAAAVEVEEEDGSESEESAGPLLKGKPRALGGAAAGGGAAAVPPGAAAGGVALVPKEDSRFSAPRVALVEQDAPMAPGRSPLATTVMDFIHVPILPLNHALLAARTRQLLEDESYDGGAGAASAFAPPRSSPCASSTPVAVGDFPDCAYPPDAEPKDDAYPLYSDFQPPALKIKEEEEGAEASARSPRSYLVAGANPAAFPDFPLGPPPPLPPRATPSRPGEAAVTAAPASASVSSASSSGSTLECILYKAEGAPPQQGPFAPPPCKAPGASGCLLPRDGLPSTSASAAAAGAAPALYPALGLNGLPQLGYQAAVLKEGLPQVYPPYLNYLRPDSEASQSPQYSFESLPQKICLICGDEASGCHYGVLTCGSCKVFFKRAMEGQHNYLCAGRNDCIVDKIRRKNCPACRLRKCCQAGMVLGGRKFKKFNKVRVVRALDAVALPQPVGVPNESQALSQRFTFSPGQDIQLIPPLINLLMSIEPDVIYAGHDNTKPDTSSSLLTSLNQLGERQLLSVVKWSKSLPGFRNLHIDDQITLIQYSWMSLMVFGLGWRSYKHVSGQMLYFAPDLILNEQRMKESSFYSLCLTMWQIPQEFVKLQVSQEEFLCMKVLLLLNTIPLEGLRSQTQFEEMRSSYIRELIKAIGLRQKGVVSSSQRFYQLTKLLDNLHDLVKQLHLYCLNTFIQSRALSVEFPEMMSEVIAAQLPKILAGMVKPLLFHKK

[6] = target: 5-hydroxytryptamine receptor 2A (Homo sapiens, UniProt P28223); format: functional, cell-based
Also: assay procedure not described here.

Sequence of 5-hydroxytryptamine receptor 2A (P28223 whole entry): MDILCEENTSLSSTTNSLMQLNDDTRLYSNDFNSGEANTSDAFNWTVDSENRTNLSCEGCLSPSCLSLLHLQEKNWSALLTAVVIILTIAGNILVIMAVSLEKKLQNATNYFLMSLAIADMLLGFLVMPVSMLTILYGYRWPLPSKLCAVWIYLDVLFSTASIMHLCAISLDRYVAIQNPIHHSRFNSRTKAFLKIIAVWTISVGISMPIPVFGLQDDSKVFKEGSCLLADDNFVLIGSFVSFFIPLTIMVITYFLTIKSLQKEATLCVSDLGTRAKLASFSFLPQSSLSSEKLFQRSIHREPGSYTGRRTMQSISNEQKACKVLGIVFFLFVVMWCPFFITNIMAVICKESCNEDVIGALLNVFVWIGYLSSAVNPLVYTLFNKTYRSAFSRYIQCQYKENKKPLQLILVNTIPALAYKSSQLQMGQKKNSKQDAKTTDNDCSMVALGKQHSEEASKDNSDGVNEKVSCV

`CC1(C)S[C@@H]2[C@H](/N=C/N3CCCCCC3)C(=O)N2[C@H]1C(=O)O` [AMDINOCILLIN] showed an AC50 [1] greater than 30 µM.
Work on `O=C(/C=C/c1cccc(S(=O)(=O)Nc2ccccc2)c1)NO` [BELINOSTAT] yielded an AC50 [2] greater than 10 µM, an AC50 [1] greater than 30 µM and an AC50 [3] greater than 10 µM. For the same compound, the AC50 [4] was greater than 10 µM and the AC50 [5] was greater than 30 µM.
`CC(O)(CS(=O)(=O)c1ccc(F)cc1)C(=O)Nc1ccc(C#N)c(C(F)(F)F)c1` (stereo not given) [BICALUTAMIDE] showed an AC50 [1] greater than 30 µM, an AC50 [3] greater than 10 µM and an AC50 [4] greater than 30 µM. It also gave an AC50 [5] greater than 30 µM.
`CC(C)(C)NC(=O)N[C@H](C(=O)N1C[C@H]2[C@@H]([C@H]1C(=O)NC(CC1CCC1)C(=O)C(N)=O)C2(C)C)C(C)(C)C` (stereo not given in full) [BOCEPREVIR] gave an AC50 [1] greater than 30 µM.
`NC[C@H]1CC[C@H](C(=O)Oc2ccc(CCC(=O)O)cc2)CC1` [CETRAXATE] was tested, and the AC50 [1] was greater than 30 µM.
In the case of `CC(=O)O[C@]1(C(C)=O)CC[C@H]2[C@@H]3C=C(Cl)C4=CC(=O)[C@@H]5C[C@@H]5[C@]4(C)[C@H]3CC[C@@]21C` [CYPROTERONE ACETATE], the AC50 [1] is reported as greater than 30 µM and the AC50 [3] is reported as greater than 10 µM.
For `C[C@@H]1C[C@H]2[C@@H]3C[C@H](F)C4=CC(=O)C=C[C@]4(C)[C@@]3(F)[C@@H](O)C[C@]2(C)[C@@]1(OC(=O)c1ccco1)C(=O)SCF` [FLUTICASONE FUROATE], the AC50 [2] was greater than 10 µM, the AC50 [1] was greater than 30 µM and the AC50 [3] was greater than 10 µM. For the same compound, the AC50 [4] was greater than 10 µM.
`O=C(CCC/C=C\C[C@@H]1[C@@H](CC[C@@H](O)CCc2ccccc2)[C@H](O)C[C@@H]1O)OCCCCO[N+](=O)[O-]` [LATANOPROSTENE BUNOD] was tested, and the AC50 [1] was greater than 30 µM.
`COC(=O)C[C@](O)(CCCC(C)(C)O)C(=O)O[C@@H]1C(OC)=C[C@]23CCCN2CCc2cc4c(cc2[C@H]13)OCO4` [OMACETAXINE MEPESUCCINATE] showed an AC50 [1] greater than 30 µM.
Compound `COc1cc(C)c2c(Oc3cccc(C(F)(F)F)c3)c(OC)cc(NC(C)CCCN)c2n1` (stereo not given) [TAFENOQUINE] has an AC50 [1] greater than 30 µM.
With `O=S1(=O)CCN(CN2CCS(=O)(=O)NC2)CN1` [TAUROLIDINE] the AC50 [2] was greater than 30 µM, the AC50 [1] was greater than 30 µM and the AC50 [6] was greater than 30 µM.
In the case of `COc1ccc2c(C(=S)N(C)CC(=O)O)cccc2c1C(F)(F)F` [TOLRESTAT], the AC50 [1] is reported as greater than 30 µM.
